# Test results from US20230265151A1, “GIP/GLP1 CO-AGONIST COMPOUNDS” (priority 2020, published 2023).
# Read-outs that look alike come from different tables or passages of the source. *1 amine or outer side, *2 acyl side, *3 side chain or, on linkers, in order; H or OH if unused. Where a SMILES comes first, the peptide text is derived from it. Side-chain parts run from the residue outwards. [ ]: non-standard residue; d: D form. The star is where a group is joined. αMePhe(2-F) = C[C@](N)(Cc1ccccc1F)C(=O)O; γGlu = O=C(O)[C@H](CCC(=O)[*:2])N[*:1]; C14 diacid = O=C(O)CCCCCCCCCCCCC(=O)*; αMeY = C[C@](N)(Cc1ccc(O)cc1)C(=O)O; αMeL = CC(C)C[C@](C)(N)C(=O)O; Orn = NCCC[C@H](N)C(=O)O; AEEA = NCCOCCOCC(=O)O; Aib = CC(C)(N)C(=O)O
# What was measured:
# Format in all cases: cell-based
# hGIPR = molecular target: T1, hGIPR (Homo sapiens, UniProt P48546); assay: Functional cAMP formation (HTRF) in HEK-293 clonal cells expressing hGIPR, 0.1% bovine casein, without or with 1.0% human serum albumin; details: 37° C.; for EC50: geometric mean, read-out: hGIPR EC50, nM (SEM, n); for Emax: percent of maximal response to GIP(1-42)NH2, read-out: hGIPR Emax, % ± SEM
# T1 construct: expressed in transfected cells
# T1 sequence (P48546 22-466): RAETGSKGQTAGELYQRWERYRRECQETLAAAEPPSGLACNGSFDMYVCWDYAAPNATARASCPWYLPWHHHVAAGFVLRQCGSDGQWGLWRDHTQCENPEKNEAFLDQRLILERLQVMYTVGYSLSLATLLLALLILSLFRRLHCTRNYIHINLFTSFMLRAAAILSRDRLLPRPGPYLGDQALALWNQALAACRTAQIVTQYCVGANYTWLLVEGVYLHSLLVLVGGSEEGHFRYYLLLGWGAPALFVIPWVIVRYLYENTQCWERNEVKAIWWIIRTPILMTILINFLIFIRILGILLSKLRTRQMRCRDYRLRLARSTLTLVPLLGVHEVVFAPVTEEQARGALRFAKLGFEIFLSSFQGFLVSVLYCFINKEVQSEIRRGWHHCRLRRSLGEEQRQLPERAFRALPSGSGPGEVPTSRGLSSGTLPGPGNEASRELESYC
# In short: (§1)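 Readings of the HTRF 665/620 nm ratio, which falls as cAMP rises, were converted to nM cAMP using a standard curve after 30 min peptide exposure at 37° C.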
# hGCGR = molecular target: T2, hGCGR (Homo sapiens, UniProt P47871); assay: Functional cAMP formation (HTRF) in HEK-293 clonal cells expressing hGCGR, 0.1% bovine casein, without or with 1.0% human serum albumin; details: 37° C., geometric mean, read-out: hGCGR EC50, nM (SEM, n)
# T2 construct: expressed in transfected cells
# In short: as §1
# hGLP-1R = hGLP-1R (Homo sapiens, UniProt P43220); assay: Functional cAMP formation (HTRF) in HEK-293 clonal cells expressing hGLP-1R, 0.1% bovine casein, without or with 1.0% human serum albumin; parameters: expressed in transfected cells; details: 37° C.; for Emax: percent of maximal response to GLP-1(7-36)NH2, read-out: hGLP-1R Emax, % ± SEM; for EC50: geometric mean, read-out: hGLP-1R EC50, nM (SEM, n)
# In short: as §1
# [1] = 0.1% bovine casein and 1.0% human serum albumin
# [2] = HEK293, 0.1% bovine casein and 1.0% human serum albumin
# [3] = HEK293, cAMP, 0.1% bovine casein, arithmetic mean
# [4] = cAMP, 0.1% bovine casein (no human serum albumin)
# T2 sequence (P47871 26-477): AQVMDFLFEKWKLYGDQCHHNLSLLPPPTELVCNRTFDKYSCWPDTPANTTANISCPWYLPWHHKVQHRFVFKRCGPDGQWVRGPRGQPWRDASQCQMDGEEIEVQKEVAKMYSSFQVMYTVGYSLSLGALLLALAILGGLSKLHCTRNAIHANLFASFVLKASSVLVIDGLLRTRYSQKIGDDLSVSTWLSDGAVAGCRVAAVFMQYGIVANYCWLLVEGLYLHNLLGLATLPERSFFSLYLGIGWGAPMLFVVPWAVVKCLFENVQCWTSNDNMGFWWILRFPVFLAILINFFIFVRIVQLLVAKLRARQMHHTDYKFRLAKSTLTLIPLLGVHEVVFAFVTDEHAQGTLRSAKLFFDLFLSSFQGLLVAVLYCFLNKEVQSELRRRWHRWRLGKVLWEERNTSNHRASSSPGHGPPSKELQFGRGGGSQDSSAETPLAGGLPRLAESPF
# Chain of hGLP-1R (P43220 24-463): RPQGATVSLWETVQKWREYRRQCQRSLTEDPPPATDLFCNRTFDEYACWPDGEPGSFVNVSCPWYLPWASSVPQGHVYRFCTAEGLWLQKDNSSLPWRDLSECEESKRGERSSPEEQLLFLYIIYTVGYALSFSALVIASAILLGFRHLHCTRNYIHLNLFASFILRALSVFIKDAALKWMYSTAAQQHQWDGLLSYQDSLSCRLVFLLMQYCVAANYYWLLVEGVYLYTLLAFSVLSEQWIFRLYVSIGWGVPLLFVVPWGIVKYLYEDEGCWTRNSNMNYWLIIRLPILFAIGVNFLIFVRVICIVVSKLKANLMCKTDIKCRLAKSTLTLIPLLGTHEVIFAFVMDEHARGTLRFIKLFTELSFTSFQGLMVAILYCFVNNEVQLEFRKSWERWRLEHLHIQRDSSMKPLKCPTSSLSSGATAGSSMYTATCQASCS
SMILES,EC50 (hGIPR; [1]) [nM],Emax (hGIPR; [2]) [%],Emax (hGIPR; [3]) [%],EC50 (hGIPR; [4]) [nM],EC50 (hGCGR; [1]) [nM],EC50 (hGCGR; [4]) [nM],Emax (hGLP-1R; [2]) [%],Emax (hGLP-1R; [3]) [%],EC50 (hGLP-1R; [4]) [nM],EC50 (hGLP-1R; [1]) [nM]
CC[C@H](C)[C@H](NC(=O)[C@H](CC(C)C)NC(=O)[C@](C)(Cc1ccc(O)cc1)NC(=O)[C@@H](CCC(=O)O)NC(=O)[C@@H](NC(=O)[C@H](Cc1ccccc1)NC(=O)[C@H](CCC(=O)O)NC(=O)C(C)(C)NC(=O)[C@H](CCC(N)=O)NC(=O)[C@H](C)NC(=O)[C@H](CCCCNC(=O)COCCOCCNC(=O)COCCOCCNC(=O)CCCCCCCCCCCCC(=O)O)NC(=O)[C@H](CCCN)NC(=O)[C@H](CC(=O)O)NC(=O)[C@H](CC(C)C)NC(=O)[C@](C)(CC(C)C)NC(=O)[C@@H](NC(=O)[C@H](CO)NC(=O)[C@H](Cc1ccc2ccccc2c1)NC(=O)[C@H](CC(=O)O)NC(=O)[C@H](CO)NC(=O)[C@@H](NC(=O)[C@](C)(Cc1ccccc1F)NC(=O)[C@@H](NC(=O)CNC(=O)[C@H](CCC(=O)O)NC(=O)C(C)(C)NC(=O)[C@@H](N)Cc1ccc(O)cc1)[C@@H](C)O)[C@@H](C)O)[C@@H](C)CC)[C@@H](C)CC)C(=O)N[C@@H](CCCCNC(=O)COCCOCCNC(=O)COCCOCCNC(=O)CCCCCCCCCCCCC(=O)O)C(=O)NCC(=O)NCC(=O)N1CCC[C@H]1C(=O)N[C@@H](CO)C(=O)N[C@@H](CO)C(=O)NCC(=O)N[C@@H](C)C(=O)N1CCC[C@H]1C(=O)N1CCC[C@H]1C(=O)N1CCC[C@H]1C(=O)N[C@@H](CO)C(N)=O [Example 256],1.5,75.3,97.7,0.0175,> 9950,> 9950,95.5,95.4,0.249,–
CC[C@H](C)[C@H](NC(=O)[C@H](CCCN)NC(=O)[C@H](CC(=O)O)NC(=O)[C@H](CC(C)C)NC(=O)[C@](C)(CC(C)C)NC(=O)[C@@H](NC(=O)[C@H](CO)NC(=O)[C@H](Cc1ccc2ccccc2c1)NC(=O)[C@H](CC(=O)O)NC(=O)[C@H](CO)NC(=O)[C@@H](NC(=O)[C@](C)(Cc1ccccc1F)NC(=O)[C@@H](NC(=O)CNC(=O)[C@H](CCC(=O)O)NC(=O)C(C)(C)NC(=O)[C@@H](N)Cc1ccc(O)cc1)[C@@H](C)O)[C@@H](C)O)[C@@H](C)CC)C(=O)N[C@@H](C)C(=O)N[C@@H](CCC(N)=O)C(=O)NC(C)(C)C(=O)N[C@@H](CCCCNC(=O)COCCOCCNC(=O)COCCOCCNC(=O)CCCCCCCCCCCCC(=O)O)C(=O)N[C@@H](Cc1ccccc1)C(=O)N[C@H](C(=O)N[C@H](CCC(=O)O)C(=O)N[C@@](C)(Cc1ccc(O)cc1)C(=O)N[C@@H](CC(C)C)C(=O)N[C@H](C(=O)N[C@@H](CCC(=O)O)C(=O)NCC(=O)NCC(=O)N1CCC[C@H]1C(=O)N[C@@H](CO)C(=O)N[C@@H](CO)C(=O)NCC(=O)N[C@@H](C)C(=O)N1CCC[C@H]1C(=O)N1CCC[C@H]1C(=O)N1CCC[C@H]1C(=O)N[C@@H](CO)C(=O)N[C@@H](CCCCNC(=O)COCCOCCNC(=O)COCCOCCNC(=O)CCCCCCCCCCCCC(=O)O)C(N)=O)[C@@H](C)CC)[C@@H](C)CC [Example 258],–,–,90.3,0.0473,> 9950,> 9950,–,94.9,–,–
CC[C@H](C)[C@H](NC(=O)[C@H](CC(C)C)NC(=O)[C@](C)(Cc1ccc(O)cc1)NC(=O)[C@@H](CCC(=O)O)NC(=O)[C@@H](NC(=O)[C@H](Cc1ccccc1)NC(=O)[C@H](CCCCNC(=O)COCCOCCNC(=O)COCCOCCNC(=O)CC[C@H](NC(=O)CCCCCCCCCCCCC(=O)O)C(=O)O)NC(=O)C(C)(C)NC(=O)[C@H](CCC(N)=O)NC(=O)[C@H](C)NC(=O)[C@H](CCCCNC(=O)COCCOCCNC(=O)COCCOCCNC(=O)CC[C@H](NC(=O)CCCCCCCCCCCCC(=O)O)C(=O)O)NC(=O)[C@H](CCCN)NC(=O)[C@H](CC(=O)O)NC(=O)[C@H](CC(C)C)NC(=O)[C@](C)(CC(C)C)NC(=O)[C@@H](NC(=O)[C@H](CO)NC(=O)[C@H](Cc1ccc(OC)cc1)NC(=O)[C@H](CC(=O)O)NC(=O)[C@H](CO)NC(=O)[C@@H](NC(=O)[C@](C)(Cc1ccccc1F)NC(=O)[C@@H](NC(=O)CNC(=O)[C@H](CCC(=O)O)NC(=O)C(C)(C)NC(=O)[C@@H](N)Cc1ccc(O)cc1)[C@@H](C)O)[C@@H](C)O)[C@@H](C)CC)[C@@H](C)CC)C(=O)N[C@@H](CCC(=O)O)C(=O)NCC(=O)NCC(=O)N1CCC[C@H]1C(=O)N[C@@H](CO)C(=O)N[C@@H](CO)C(=O)NCC(=O)N[C@@H](C)C(=O)N1CCC[C@H]1C(=O)N1CCC[C@H]1C(=O)N1CCC[C@H]1C(=O)N[C@@H](CO)C(N)=O [Example 259] (H-Y[Aib]EGT[αMePhe(2-F)]TSDY(Me)SI[αMeL]LD[Orn]K([AEEA-AEEA-γGlu-C14 diacid])AQ[Aib]K([AEEA-AEEA-γGlu-C14 diacid])FI[dE][αMeY]LIEGGPSSGAPPPS-NH2),–,66.4,111,0.0198,> 9950,> 9950,–,–,0.362,28.9
CC[C@H](C)[C@H](NC(=O)[C@H](CC(C)C)NC(=O)[C@](C)(Cc1ccc(O)cc1)NC(=O)[C@@H](CCC(=O)O)NC(=O)[C@@H](NC(=O)[C@H](Cc1ccccc1)NC(=O)[C@H](CCC(=O)O)NC(=O)C(C)(C)NC(=O)[C@H](CCC(N)=O)NC(=O)[C@H](C)NC(=O)[C@H](CCCCNC(=O)COCCOCCNC(=O)COCCOCCNC(=O)CC[C@H](NC(=O)CCCCCCCCCCCCC(=O)O)C(=O)O)NC(=O)[C@H](CCCN)NC(=O)[C@H](CC(=O)O)NC(=O)[C@H](CC(C)C)NC(=O)[C@](C)(CC(C)C)NC(=O)[C@@H](NC(=O)[C@H](CO)NC(=O)[C@H](Cc1ccc(OC)cc1)NC(=O)[C@H](CC(=O)O)NC(=O)[C@H](CO)NC(=O)[C@@H](NC(=O)[C@](C)(Cc1ccccc1F)NC(=O)[C@@H](NC(=O)CNC(=O)[C@H](CCC(=O)O)NC(=O)C(C)(C)NC(=O)[C@@H](N)Cc1ccc(O)cc1)[C@@H](C)O)[C@@H](C)O)[C@@H](C)CC)[C@@H](C)CC)C(=O)N[C@@H](CCC(=O)O)C(=O)NCC(=O)NCC(=O)N1CCC[C@H]1C(=O)N[C@@H](CO)C(=O)N[C@@H](CO)C(=O)NCC(=O)N[C@@H](C)C(=O)N1CCC[C@H]1C(=O)N1CCC[C@H]1C(=O)N1CCC[C@H]1C(=O)N[C@@H](CO)C(=O)N[C@@H](CCCCNC(=O)COCCOCCNC(=O)COCCOCCNC(=O)CC[C@H](NC(=O)CCCCCCCCCCCCC(=O)O)C(=O)O)C(N)=O [Example 261],–,75.7,105,0.025,> 9950,> 9950,–,97.9,–,–
CC[C@H](C)[C@H](NC(=O)[C@H](CCCN)NC(=O)[C@H](CC(=O)O)NC(=O)[C@H](CC(C)C)NC(=O)[C@](C)(CC(C)C)NC(=O)[C@@H](NC(=O)[C@H](CO)NC(=O)[C@H](Cc1ccc(OC)cc1)NC(=O)[C@H](CC(=O)O)NC(=O)[C@H](CO)NC(=O)[C@@H](NC(=O)[C@](C)(Cc1ccccc1F)NC(=O)[C@@H](NC(=O)CNC(=O)[C@H](CCC(=O)O)NC(=O)C(C)(C)NC(=O)[C@@H](N)Cc1ccc(O)cc1)[C@@H](C)O)[C@@H](C)O)[C@@H](C)CC)C(=O)N[C@@H](C)C(=O)N[C@@H](CCC(N)=O)C(=O)NC(C)(C)C(=O)N[C@@H](CCC(=O)O)C(=O)N[C@@H](Cc1ccccc1)C(=O)N[C@H](C(=O)N[C@@H](CCCCNC(=O)COCCOCCNC(=O)COCCOCCNC(=O)CC[C@H](NC(=O)CCCCCCCCCCCCC(=O)O)C(=O)O)C(=O)N[C@@](C)(Cc1ccc(O)cc1)C(=O)N[C@@H](CC(C)C)C(=O)N[C@H](C(=O)N[C@@H](CCCCNC(=O)COCCOCCNC(=O)COCCOCCNC(=O)CC[C@H](NC(=O)CCCCCCCCCCCCC(=O)O)C(=O)O)C(=O)NCC(=O)NCC(=O)N1CCC[C@H]1C(=O)N[C@@H](CO)C(=O)N[C@@H](CO)C(=O)NCC(=O)N[C@@H](C)C(=O)N1CCC[C@H]1C(=O)N1CCC[C@H]1C(=O)N1CCC[C@H]1C(=O)N[C@@H](CO)C(N)=O)[C@@H](C)CC)[C@@H](C)CC [Example 262] (H-Y[Aib]EGT[αMePhe(2-F)]TSDY(Me)SI[αMeL]LD[Orn]IAQ[Aib]EFIK([AEEA-AEEA-γGlu-C14 diacid])[αMeY]LIK([AEEA-AEEA-γGlu-C14 diacid])GGPSSGAPPPS-NH2; N-terminus assumed),–,79.7,89.8,–,> 9950,> 9950,115,105,–,–
